# Measurements from patent US20050089571A1, “Pharmaceutical formulation for the active ingredient budesonide” (ROEHM GMBH & CO.KG, priority 2002, published 2005).
# Test: Release test for budesonide, USP XXIII <711> Dissolution, apparatus 2 (paddle), 100 revolutions/min
# Type: physicochemical
# Description: The release test for budesonide is carried out in accordance with USP XXIII monograph <711> “Dissolution” with apparatus 2 (paddle) with 100 revolutions/min in phosphate buffer of pH 7.5 according to the monograph “Intestinal Fluid, Simulated, TS” without addition of pepsin or in purified water with the paddle at 100 revolutions/min with 500 ml of dissolving medium. 400 mg of sample were weighed for each determination. Detection took place by means of HPLC with a PP 18 column, 10 cm (Phenomenex) and UV detection at 246 nm. Equipment: pump L 7000 100 (from Merck-Hitachi, Darmstadt, Germany), autosampler L 7000 200 (from Merck-Hitachi, Darmstadt, Germany) UV/VIS detector L 4250 (from Merck-Hitachi, Darmstadt, Germany). The volume injected was 100 μl, and the flow rate was 1 ml/min. The retention times averaged 2.5 min. At the end of the test, the pellets were homogenized with an Ultra Turrax for 10 min. The content was used as 100% value in the calculation. 3 to 6 tests were carried out for each medium.
# The pellets release the active ingredient under the indicated conditions in vitro as described below. At the end of the test, the pellets were homogenized using an Ultra Turrax for 10 min, and the budesonide concentration in the solution was again determined. The latter measurement was used as 100% value (theoretically possible budesonide content in the solution) in the calculation.
structure (smiles),measurement,setting,value
"CCCC1O[C@@H]2C[C@H]3[C@@H]4CCC5=CC(=O)C=C[C@]5(C)[C@H]4[C@@H](O)C[C@]3(C)[C@]2(C(=O)CO)O1 (stereo partly shown) [Example 1, budesonide]","Release in purified water and phosphate buffer of pH 7.5, Mean",time 0 min,0.0 % of theory
same,"Release in purified water and phosphate buffer of pH 7.5, Mean",time 60 min,ca. 3.7 % of theory
same,"Release in purified water and phosphate buffer of pH 7.5, Mean",time 120 min,ca. 5.4 % of theory
same,"Release in purified water and phosphate buffer of pH 7.5, Mean",time 180 min,ca. 7.1 % of theory
